According to ChEMBL document CHEMBL5724806, “Unraveling interindividual differences and functional consequences of gut microbial metabolism of immunosuppressants” (2024):

What was measured:
Assay type in all cases: ADME
[1] = (§1) The drug is tested on the gut metagenome community of T-01 with ENA study accession number: PRJEB31790 for biotransformation under microaerobic condition. The drug concentrations were measured over 7 timepoints collected between 0 and 12 hours of incubation by liquid-chromatography-coupled mass spectrometry (LC–MS); parameters: dose 5 uM, timepoint 0, 0.75, 1.5, 3, 6, 9, 12 hours; conditions: 5 µM
[2] = The drug is tested on Parabacteroides merdae strain: DSM19495 for biotransformation under anaerobic condition. The drug concentrations were measured over 6 timepoints collected between 0 and 12 hours of incubation by liquid-chromatography-coupled mass spectrometry (LC–MS); parameters: dose 5 uM, timepoint 0, 1.5, 3, 6, 9, 12 hours; conditions: 5 µM
[3] = as §1, with “T-02” for “T-01”, “anaerobic” for “microaerobic”; parameters: dose 5 uM, timepoint 0, 0.75, 1.5, 3, 6, 9, 12 hours; conditions: 5 µM
[4] = The drug is tested on Streptococcus anginosus strain: DSM20563 for biotransformation under anaerobic condition. The drug concentrations were measured over 6 timepoints collected between 0 and 12 hours of incubation by liquid-chromatography-coupled mass spectrometry (LC–MS); parameters: dose 5 uM, timepoint 0, 1.5, 3, 6, 9, 12 hours; conditions: 5 µM
[5] = The drug is tested on Bacteroides vulgatus strain: DSM1447 for biotransformation under anaerobic condition. The drug concentrations were measured over 6 timepoints collected between 0 and 12 hours of incubation by liquid-chromatography-coupled mass spectrometry (LC–MS); parameters: dose 5 uM, timepoint 0, 1.5, 3, 6, 9, 12 hours; conditions: phocaeicola vulgatus, 5 µM
[6] = The drug is tested on Odoribacter splanchnicus strain: DSM20712 for biotransformation under anaerobic condition. The drug concentrations were measured over 6 timepoints collected between 0 and 12 hours of incubation by liquid-chromatography-coupled mass spectrometry (LC–MS); parameters: dose 5 uM, timepoint 0, 1.5, 3, 6, 9, 12 hours; conditions: 5 µM
[7] = as §1, with “T-03” for “T-01”, “anaerobic” for “microaerobic”; parameters: dose 5 uM, timepoint 0, 0.75, 1.5, 3, 6, 9, 12 hours; conditions: 5 µM
[8] = The drug is tested on Actinomyces naeslundi strain: DSM43013 for biotransformation under microaerobic condition. The drug concentrations were measured over 6 timepoints collected between 0 and 12 hours of incubation by liquid-chromatography-coupled mass spectrometry (LC–MS); parameters: dose 5 uM, timepoint 0, 1.5, 3, 6, 9, 12 hours; conditions: actinomyces naeslundii, 5 µM
[9] = The drug is tested on Gemella haemolysans strain: DSM107751 for biotransformation under microaerobic condition. The drug concentrations were measured over 6 timepoints collected between 0 and 12 hours of incubation by liquid-chromatography-coupled mass spectrometry (LC–MS); parameters: dose 5 uM, timepoint 0, 1.5, 3, 6, 9, 12 hours; conditions: 5 µM
[10] = as §1, with “A-02” for “T-01”; parameters: dose 5 uM, timepoint 0, 0.75, 1.5, 3, 6, 9, 12 hours; conditions: 5 µM
[11] = The drug is tested on Streptococcus sanguinis strain: DSM20567 for biotransformation under microaerobic condition. The drug concentrations were measured over 6 timepoints collected between 0 and 12 hours of incubation by liquid-chromatography-coupled mass spectrometry (LC–MS); parameters: dose 5 uM, timepoint 0, 1.5, 3, 6, 9, 12 hours; conditions: 5 µM
[12] = The drug is tested on Gemella morbillorum strain: DSM20572 for biotransformation under anaerobic condition. The drug concentrations were measured over 6 timepoints collected between 0 and 12 hours of incubation by liquid-chromatography-coupled mass spectrometry (LC–MS); parameters: dose 5 uM, timepoint 0, 1.5, 3, 6, 9, 12 hours; conditions: 5 µM
[13] = The drug is tested on Bifidobacterium longum strain: DSM20088 for biotransformation under microaerobic condition. The drug concentrations were measured over 6 timepoints collected between 0 and 12 hours of incubation by liquid-chromatography-coupled mass spectrometry (LC–MS); parameters: dose 5 uM, timepoint 0, 1.5, 3, 6, 9, 12 hours; conditions: 5 µM
[14] = The drug is tested on Bifidobacterium adolescentis strain: DSM20083 for biotransformation under anaerobic condition. The drug concentrations were measured over 6 timepoints collected between 0 and 12 hours of incubation by liquid-chromatography-coupled mass spectrometry (LC–MS); parameters: dose 5 uM, timepoint 0, 1.5, 3, 6, 9, 12 hours; conditions: 5 µM
[15] = The drug is tested on Clostridium bolteae strain: DSM15670 for biotransformation under anaerobic condition. The drug concentrations were measured over 6 timepoints collected between 0 and 12 hours of incubation by liquid-chromatography-coupled mass spectrometry (LC–MS); parameters: dose 5 uM, timepoint 0, 1.5, 3, 6, 9, 12 hours; conditions: enterocloster bolteae, 5 µM
[16] = as §1, with “P-03” for “T-01”, “anaerobic” for “microaerobic”; parameters: dose 5 uM, timepoint 0, 0.75, 1.5, 3, 6, 9, 12 hours; conditions: 5 µM
[17] = as §1, with “A-06” for “T-01”, “anaerobic” for “microaerobic”; parameters: dose 5 uM, timepoint 0, 0.75, 1.5, 3, 6, 9, 12 hours; conditions: 5 µM
[18] = as §1, with “A-01” for “T-01”; parameters: dose 5 uM, timepoint 0, 0.75, 1.5, 3, 6, 9, 12 hours; conditions: 5 µM
[19] = as §1, with “A-06” for “T-01”; parameters: dose 5 uM, timepoint 0, 0.75, 1.5, 3, 6, 9, 12 hours; conditions: 5 µM
[20] = as §1, with “T-04” for “T-01”, “anaerobic” for “microaerobic”; parameters: dose 5 uM, timepoint 0, 0.75, 1.5, 3, 6, 9, 12 hours; conditions: 5 µM
[21] = as §1, with “T-02” for “T-01”; parameters: dose 5 uM, timepoint 0, 0.75, 1.5, 3, 6, 9, 12 hours; conditions: 5 µM
[22] = The drug is tested on Lactobacillus fermentum strain: DSM20052 for biotransformation under microaerobic condition. The drug concentrations were measured over 6 timepoints collected between 0 and 12 hours of incubation by liquid-chromatography-coupled mass spectrometry (LC–MS); parameters: dose 5 uM, timepoint 0, 1.5, 3, 6, 9, 12 hours; conditions: limosilactobacillus fermentum, 5 µM
[23] = The drug is tested on Capnocytophaga ochracea strain: DSM7271 for biotransformation under anaerobic condition. The drug concentrations were measured over 6 timepoints collected between 0 and 12 hours of incubation by liquid-chromatography-coupled mass spectrometry (LC–MS); parameters: dose 5 uM, timepoint 0, 1.5, 3, 6, 9, 12 hours; conditions: 5 µM
[24] = as §1, with “A-03” for “T-01”; parameters: dose 5 uM, timepoint 0, 0.75, 1.5, 3, 6, 9, 12 hours; conditions: 5 µM
[25] = The drug is tested on Bacteroides xylanisolvens strain: HM 722 for biotransformation under anaerobic condition. The drug concentrations were measured over 6 timepoints collected between 0 and 12 hours of incubation by liquid-chromatography-coupled mass spectrometry (LC–MS); parameters: dose 5 uM, timepoint 0, 1.5, 3, 6, 9, 12 hours; conditions: 5 µM
[26] = The drug is tested on Eubacterium rectale strain: DSM17629 for biotransformation under anaerobic condition. The drug concentrations were measured over 6 timepoints collected between 0 and 12 hours of incubation by liquid-chromatography-coupled mass spectrometry (LC–MS); parameters: dose 5 uM, timepoint 0, 1.5, 3, 6, 9, 12 hours; conditions: agathobacter rectalis, 5 µM
[27] = The drug is tested on Bacteroides ovatus strain: ATCC 8483 for biotransformation under anaerobic condition. The drug concentrations were measured over 6 timepoints collected between 0 and 12 hours of incubation by liquid-chromatography-coupled mass spectrometry (LC–MS); parameters: dose 5 uM, timepoint 0, 1.5, 3, 6, 9, 12 hours; conditions: 5 µM
[28] = as §1, with “T-04” for “T-01”; parameters: dose 5 uM, timepoint 0, 0.75, 1.5, 3, 6, 9, 12 hours; conditions: 5 µM
[29] = as §1, with “P-04” for “T-01”, “anaerobic” for “microaerobic”; parameters: dose 5 uM, timepoint 0, 0.75, 1.5, 3, 6, 9, 12 hours; conditions: 5 µM
[30] = The drug is tested on Actinomyces naeslundi strain: DSM43013 for biotransformation under anaerobic condition. The drug concentrations were measured over 6 timepoints collected between 0 and 12 hours of incubation by liquid-chromatography-coupled mass spectrometry (LC–MS); parameters: dose 5 uM, timepoint 0, 1.5, 3, 6, 9, 12 hours; conditions: actinomyces naeslundii, 5 µM

Row | Bacterial Biotransformation [1] | Bacterial Biotransformation [2] | Bacterial Biotransformation [3] | Bacterial Biotransformation [4] | Bacterial Biotransformation [5] | Bacterial Biotransformation [6] | Bacterial Biotransformation [7] | Bacterial Biotransformation [8] | Bacterial Biotransformation [10] | Bacterial Biotransformation [11] | Bacterial Biotransformation [12] | Bacterial Biotransformation [13] | Bacterial Biotransformation [14] | Bacterial Biotransformation [16] | Bacterial Biotransformation [17] | Bacterial Biotransformation [18] | Bacterial Biotransformation [19] | Bacterial Biotransformation [20] | Bacterial Biotransformation [21] | SMILES | Bacterial Biotransformation [9] | further results
1 | Compound NOT metabolized | Compound NOT metabolized | Compound NOT metabolized | Compound NOT metabolized | Compound NOT metabolized | Compound NOT metabolized | Compound NOT metabolized | Compound NOT metabolized | Compound metabolized | Compound NOT metabolized | Compound NOT metabolized | Compound NOT metabolized | Compound NOT metabolized | Compound NOT metabolized | Compound NOT metabolized | Compound NOT metabolized | Compound NOT metabolized | Compound NOT metabolized | Compound NOT metabolized | CCC(C)(C)C(=O)O[C@H]1C[C@@H](C)C=C2C=C[C@H](C)[C@H](CC[C@@H]3C[C@@H](O)CC(=O)O3)[C@H]21 [SIMVASTATIN] | Compound NOT metabolized | Bacterial Biotransformation [15]: Compound NOT metabolized; Bacterial Biotransformation [22]: Compound NOT metabolized; Bacterial Biotransformation [23]: Compound NOT metabolized; Bacterial Biotransformation [24]: Compound NOT metabolized; Bacterial Biotransformation [25]: Compound NOT metabolized; Bacterial Biotransformation [26]: Compound NOT metabolized; Bacterial Biotransformation [27]: Compound NOT metabolized; Bacterial Biotransformation [28]: Compound NOT metabolized; Bacterial Biotransformation [29]: Compound NOT metabolized; Bacterial Biotransformation [30]: Compound NOT metabolized
2 | Compound NOT metabolized | Compound NOT metabolized | Compound NOT metabolized | Compound NOT metabolized | Compound NOT metabolized | Compound NOT metabolized | Compound NOT metabolized | Compound NOT metabolized | Compound NOT metabolized | Compound NOT metabolized | Compound NOT metabolized | Compound NOT metabolized | Compound NOT metabolized | Compound NOT metabolized | Compound NOT metabolized | Compound NOT metabolized | Compound NOT metabolized | Compound NOT metabolized | Compound NOT metabolized | CC(C)NCC(O)COc1ccc(CC(N)=O)cc1 (centres undefined) [ATENOLOL] | Compound NOT metabolized | Bacterial Biotransformation [15]: Compound NOT metabolized; Bacterial Biotransformation [22]: Compound NOT metabolized; Bacterial Biotransformation [23]: Compound NOT metabolized; Bacterial Biotransformation [24]: Compound NOT metabolized; Bacterial Biotransformation [25]: Compound NOT metabolized; Bacterial Biotransformation [26]: Compound NOT metabolized; Bacterial Biotransformation [27]: Compound NOT metabolized; Bacterial Biotransformation [28]: Compound NOT metabolized; Bacterial Biotransformation [29]: Compound NOT metabolized; Bacterial Biotransformation [30]: Compound NOT metabolized

Row | SMILES | Bacterial Biotransformation [1] | Bacterial Biotransformation [2] | Bacterial Biotransformation [3] | Bacterial Biotransformation [4] | Bacterial Biotransformation [5] | Bacterial Biotransformation [6] | Bacterial Biotransformation [7] | Bacterial Biotransformation [8] | Bacterial Biotransformation [10] | Bacterial Biotransformation [11] | Bacterial Biotransformation [12] | Bacterial Biotransformation [13] | Bacterial Biotransformation [14] | Bacterial Biotransformation [16] | Bacterial Biotransformation [17] | Bacterial Biotransformation [18] | Bacterial Biotransformation [19] | Bacterial Biotransformation [20] | Bacterial Biotransformation [21] | Bacterial Biotransformation [9] | further results
3 | CCOC(=O)C1=C(COCCN)NC(C)=C(C(=O)OC)C1c1ccccc1Cl (centres undefined) [AMLODIPINE] | Compound NOT metabolized | Compound NOT metabolized | Compound NOT metabolized | Compound NOT metabolized | Compound NOT metabolized | Compound metabolized | Compound NOT metabolized | Compound NOT metabolized | Compound metabolized | Compound NOT metabolized | Compound NOT metabolized | Compound NOT metabolized | Compound NOT metabolized | Compound NOT metabolized | Compound NOT metabolized | Compound NOT metabolized | Compound NOT metabolized | Compound NOT metabolized | Compound NOT metabolized | Compound NOT metabolized | Bacterial Biotransformation [22]: Compound NOT metabolized; Bacterial Biotransformation [23]: Compound NOT metabolized; Bacterial Biotransformation [24]: Compound NOT metabolized; Bacterial Biotransformation [25]: Compound NOT metabolized; Bacterial Biotransformation [26]: Compound NOT metabolized; Bacterial Biotransformation [27]: Compound NOT metabolized; Bacterial Biotransformation [28]: Compound NOT metabolized; Bacterial Biotransformation [29]: Compound NOT metabolized; Bacterial Biotransformation [30]: Compound NOT metabolized
